Assay results reported in patent US20240122909A1, “TREATMENTS OF HEREDITARY ANGIOEDEMA” (KALVISTA PHARMACEUTICALS LIMITED, priority 2021, published 2024).

Experiments:
[1] = Phase 2 study Part 2, efficacy in on-demand treatment of HAE attacks; format: in vivo, human
Method: In Part 2, the subjects were randomized 1:1 to 2 treatment sequences. This part of the study was conducted away from the clinic or hospital. In Sequence 1 (study arm 1) subjects received a single dose of 600 mg of the compound to treat the first eligible HAE attack. Following resolution of this attack, subjects received a single dose of placebo to treat the second eligible HAE attack.
In Sequence 2 (study arm 2) subjects received a single dose of placebo to treat the first eligible HAE attack. Following resolution of this attack, subjects received a single dose of 600 mg of the compound to treat the second eligible HAE attack.
Laryngeal or facial attacks were not eligible for treatment. HAE attacks must have been treated within the first hour of onset and before reaching severe on the global attack severity scale. Subjects must also have been able to identify the start of a HAE attack. Upon onset of the eligible HAE attack, subjects notified the dedicated study physician or qualified designee with a description of the HAE attack. The dedicated study physician or qualified designee confirmed eligibility of the HAE attack and agreed to study drug being administered. HAE attacks required documentation, on the Subject Diary, of attack location, attack symptoms, time of onset, attack severity, and time of last substantial meal prior to dosing. Subjects took study drug, as instructed, and completed timed assessments of their HAE attack symptoms for a 48 h period as documented below in Table 3. The dedicated study physician or qualified designee contacted the subject within 24 h of the eligible HAE attack to confirm the subject's safety and wellbeing. Subjects were instructed to contact the dedicated study physician or qualified designee in case of any safety concerns. In the case of hypersensitivity, subjects contacted the dedicated study physician or qualified designee or contact the nearest emergency service. The dedicated study physician or qualified designee was available 24 h/day and 7 days/week to receive subject calls.
Time to use of conventional attack treatment was assessed. The subject diary captured the efficacy endpoints including time to use of conventional attack treatment and HAE attack severity.
Overall HAE attack severity was assessed on a 5-point Likert scale (5LS) scored as none, mild, moderate, severe and very severe.
Change in HAE attack severity was assessed using a 7-point transition question (7TQ), scored as Much better/Better/A little better/No change/A little worse/Worse/Much worse.
The type of HAE attack symptoms (abdominal pain, skin pain and skin swelling) was each assessed on a 100 mm visual analogue scale (VAS) anchored at 0 (none) and 100 (very severe).
The primary endpoint, time to use of conventional attack treatment, was analyzed using a generalization of Gehan's test proposed by Feingold and Gillespie (1996) (Crossover trials with censored data. Statistics in Medicine 1996; 15(10): 953-967) to reflect the repeat measures on each subject. Subjects were treated as censored if no worsening occurs within 12 h of study drug.
The proportion of HAE attacks that worsen by one level or more on the 5LS or that require conventional attack treatment within 12 h of study drug was analyzed using Prescott's test (1981) (The comparison of success rates in cross-over trials in the presence of an order effect. Applied Statistics 1981; 30: 9-15) to compare the treatment arms.
A similar approach to that used for the primary endpoint was followed for the analysis of the time between study drug and HAE attack worsening by one level or more on the 5LS or use of conventional attack treatment, whichever comes first within 12 h. […]

[2] = target: PKa (Homo sapiens, UniProt P03952); assay: Protection of HK from PKa-mediated cleavage in DXS-stimulated HAE and control plasma; format: biochemical; details: HAE and healthy control plasma stimulated with dextran sulfate, WES
Sequence of PKa (P03952 391-638 limits assumed): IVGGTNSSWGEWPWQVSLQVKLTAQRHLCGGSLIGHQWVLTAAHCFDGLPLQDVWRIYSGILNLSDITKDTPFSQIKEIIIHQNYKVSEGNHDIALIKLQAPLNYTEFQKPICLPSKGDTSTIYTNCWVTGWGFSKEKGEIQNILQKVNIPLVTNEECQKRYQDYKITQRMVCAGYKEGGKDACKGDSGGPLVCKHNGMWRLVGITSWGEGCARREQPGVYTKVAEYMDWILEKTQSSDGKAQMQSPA
Sequence of PKa (P03952 20-390 partner limits assumed): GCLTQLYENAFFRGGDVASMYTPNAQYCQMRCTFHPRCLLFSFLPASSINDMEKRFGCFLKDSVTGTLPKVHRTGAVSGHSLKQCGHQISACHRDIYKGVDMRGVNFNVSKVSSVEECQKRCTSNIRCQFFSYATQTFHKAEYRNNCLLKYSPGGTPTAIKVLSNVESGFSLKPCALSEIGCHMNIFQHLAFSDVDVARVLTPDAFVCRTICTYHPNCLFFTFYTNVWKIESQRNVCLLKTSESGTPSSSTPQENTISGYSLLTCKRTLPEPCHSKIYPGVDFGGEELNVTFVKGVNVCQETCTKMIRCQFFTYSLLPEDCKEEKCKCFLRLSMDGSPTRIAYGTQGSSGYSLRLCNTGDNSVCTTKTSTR
Method: High molecular weight kininogen (HK) cleavage in undiluted citrated human plasma was induced by contact system activation with dextran sulfate (DXS, Sigma #31395-10G; 6.25 μg/ml) on wet ice. […] HAE plasma was obtained from HAE subjects (n=6) and C1-inhibitor deficiency was confirmed by western blotting. Protection of HK from PKa mediated cleavage in DXS-stimulated whole undiluted plasma was then determined by two methods; traditional western blotting and a semi-automated capillary-based immunoassay.
Western blotting: SDS-PAGE gel electrophoresis was done using 7.5% Criterion TGX Precast gels (Bio-rad). Transfer was made onto Immobilon-FL PVDF membrane. Image analysis was performed using the LICOR imaging system. Mouse monoclonal anti-human HK antibody (MAB15692, R&D systems) was used for traditional immunoblotting.
Capillary-Based Immunoassay on the WES System (ProteinSimple):
Preparation of samples: Combine one part 5× fluorescent master mix with four parts of the 1:200 plasma sample. Vortex to mix. Heat the samples+fluorescent master mix and the biotinylated ladder at 95° C. for 5 minutes, vortex, and load onto the WES plate. […] The peak area is defined as the area calculated for the spectral peak profile for HK. To measure the plasma kallikrein inhibition by the compound, the percent full-length HK detected was calculated.

[3] = Phase 1 single ascending dose study, safety and tolerability; format: in vivo, human; details: phase I trial, healthy males
Source text: (§1) This study was a randomized, double-blind, placebo-controlled single ascending dose (SAD) and crossover studies for food effect and capsule/tablet formulations.

[4] = Phase 1 single ascending dose study, plasma pharmacokinetics; format: in vivo, human; details: oral capsule 5 mg to 600 mg, fasted healthy males
Method: as §1
Samples for pharmacokinetic (PK) and PD assessment were taken at repeated intervals over 48 hours.
Plasma samples used for PK assessment were analysed using a validated liquid chromatography tandem mass spectrometry (LC MS/MS) method.

[5] = target: plasma kallikrein (Homo sapiens, UniProt P03952); assay: Phase 1 study, ex vivo PKa catalytic activity in DXS-stimulated undiluted plasma; design: samples from a Phase 1 Single Ascending Dose Study in healthy adult males; from tissue; host or cells: undiluted plasma of healthy adult male volunteers after oral dosing; details: 600 mg tablet
Sequence of plasma kallikrein (P03952 391-638 limits assumed): as the sequence (P03952 391-638 limits assumed) above
Sequence of plasma kallikrein (P03952 20-390 partner limits assumed): as the sequence (P03952 20-390 partner limits assumed) above
Method: PD measurements were determined in dextran sulfate (DXS) stimulated undiluted plasma using a fluorogenic enzyme assay and capillary based HK cleavage immunoassay.
The time until appearance of detectable amidolytic enzyme activity in DXS-stimulated plasma (lag time) was calculated from the catalytic activity assay. The detection sensitivity of the rate of catalytic activity in plasma based on using a Spark (Tecan) fluorimeter is a fluorescence increase to reach 1ΔF unit/sec.

For `COCc1nn(Cc2ccc(Cn3ccccc3=O)cc2)cc1C(=O)NCc1nccc(OC)c1F` [compound of Formula A, N-[(3-fluoro-4-methoxypyridin-2-yl)methyl]-3-(methoxymethyl)-1-({4-[(2-oxopyridin-1-yl)methyl]phenyl}methyl)pyrazole-4-carboxamide], the “PGI-C: Median time to HAE attack being (1) rated a little worse or higher for two consecutive time points, or (2) use of conventional attack treatment, whichever comes first” value ([1]; 600 mg, N = 53, at 12 hours) was over 12 h, the “PGI-C: Median time to HAE attack being rated a little worse or higher for two consecutive time points” value ([1]; 600 mg, N = 53, at 12 hours) was over 12 h and the “PGI-C: Proportion of HAE attacks that were stable or improved” value ([1]; 600 mg, N = 53, at 12 hours) was 48 (90.6) n (%). For the same molecule, the “PGI-S: Median time to HAE attack resolution (rating of none)” value ([1]; 600 mg, N = 53, at 12 hours) was over 12 h, the “PGI-S: Median time to improvement by one level or more from baseline” value ([1]; 600 mg, N = 53, at 12 hours) was 9.0 h and the “PGI-S: Proportion of HAE attacks that improved by 1 level or more from baseline” value ([1]; 600 mg, N = 53, at 12 hours) was 30 (56.6) n (%). The “PGI-S: Proportion of patients with HAE attack resolution (rating of none)” value ([1]; 600 mg, N = 53, at 12 hours) was 20 (37.7) n (%), the “VAS: Proportion of HAE attacks with symptom relief (50% reduction from baseline in composite VAS for three consecutive time points)” value ([1]; 600 mg, N = 53, at 12 hours) was 33 (62.3) n (%) and the “PGI-C: Median time to HAE attack being (1) rated a little worse or higher for two consecutive time points, or (2) use of conventional attack treatment, whichever comes first” value ([1]; 600 mg, N = 53, at 24 hours) was over 24 h. For the same molecule, the “PGI-C: Median time to HAE attack being rated a little worse or higher for two consecutive time points” value ([1]; 600 mg, N = 53, at 24 hours) was over 24 h, the “PGI-C: Proportion of HAE attacks that were stable or improved” value ([1]; 600 mg, N = 53, at 24 hours) was 45 (84.9) n (%) and the “PGI-S: Median time to HAE attack resolution (rating of none)” value ([1]; 600 mg, N = 53, at 24 hours) was 18.0 h. For the same molecule, the “PGI-S: Median time to improvement by one level or more from baseline” value ([1]; 600 mg, N = 53, at 24 hours) was 9.0 h, the “PGI-S: Proportion of HAE attacks that improved by 1 level or more from baseline” value ([1]; 600 mg, N = 53, at 24 hours) was 35 (66.0) n (%) and the “PGI-S: Proportion of patients with HAE attack resolution (rating of none)” value ([1]; 600 mg, N = 53, at 24 hours) was 28 (52.8) n (%). The “VAS: Proportion of HAE attacks with symptom relief (50% reduction from baseline in composite VAS for three consecutive time points)” value ([1]; 600 mg, N = 53, at 24 hours) was 39 (73.6) n (%), the “severity of the HAE attack, composite VAS score” value ([1]; 600 mg, over 12 hours and 24 hours) was “reduced the severity of the HAE attack” and the “attacks improved to “none” on PGI-S (5LS)” value ([1]; 600 mg, within 12 hours) was 37.7%. For the same molecule, the “number of attacks stabilized or improved by PGI-S (5LS) or use of rescue” value ([1]; 600 mg, within 12 hours) was “significantly increased the number of attacks stabilized or improved”, the “attacks improved to “none” on PGI-S (5LS)” value ([1]; 600 mg, within 24 hours) was 52.8% and the “Median time to symptom relief” value ([1]; abdominal attacks) was 1.5 h. For the same molecule, the “attacks that achieved attack resolution within 24 hours” value ([1]; abdominal attacks) was 61.1%, the “attacks that achieved symptom relief (PGI-C at least “A little better” within 12 hours)” value ([1]; abdominal attacks) was 77.8% and the “Median time to symptom relief” value ([1]; peripheral attacks) was 2.5 h. For the same molecule, the “attacks that achieved attack resolution within 24 hours” value ([1]; peripheral attacks) was 50.0%, the “attacks that achieved symptom relief (PGI-C at least “A little better” within 12 hours)” value ([1]; peripheral attacks) was 77.5% and the “protection against HK cleavage” value [2] was “dose dependent protection against HK cleavage”. For the same molecule, the tolerability [3] was “no tolerability signals”, the plasma exposure [4] was “rapid and dose-dependent plasma exposure” and the “lag time until appearance of catalytic activity during contact system activation” value [5] was “increases the time until appearance of catalytic activity”. The “food effect on pharmacodynamic profile” value ([5]; fed vs fasted) was “no significant food-effect”.
